# Reference: patent publication US20250115942A1, “SCREENING METHOD FOR ANTI-PSEUDOMONAL AGENTS AND COMPOSITIONS AND METHODS FOR TREATING PSEUDOMONAS INFECTIONS” (Board of Regents for Oklahoma Agricultural and Mechanical …, priority 2021, published 2025)
# Key:
# [1] = system: Pseudomonas aeruginosa PA14; assay: Growth curve analysis (OD600) in LB-Lennox; assay type: cell-based
# Procedure: Strains of interest were grown on LB plates overnight, then inoculated into LB liquid broth until late stationary phase was reached (about 18 hours). Strains were then diluted 1,000-fold into fresh medium and grown to early exponential phase (about 4 hours). The optical density at 600 nm (OD600) was measured, and all cultures were normalized to an OD600 equal to 0.1. […] The plate was incubated in a BioTek Synergy H1 plate reader (BioTek, USA) at 37° C. for 20 h with orbital shaking. OD600 measurements were obtained every 2 minutes. […]
# [2] = system: R/F pyocin gene transcription (P07990-lux reporter); assay: Kinetic luciferase assay, P07990-lux reporter for R/F pyocin expression; assay type: cell-based, Pseudomonas aeruginosa
# Procedure: Strains of interest were cultured as described in the growth curve analysis section. Luminescence was measured in black or white clear-bottom 96-well microtiter plates at 3-min intervals at a sensitivity (gain) setting of 135 or 200 together with the OD600 for 20 hours on a BioTek Synergy H1 plate reader (BioTek, USA). Final luciferase activity values were calculated by normalizing luciferase luminescence to culture density.
# Strains of interest were grown on LB plates overnight, and single colonies were inoculated into LB liquid broth with appropriate antibiotics and grown overnight with shaking at 37° C. Strains were then diluted 1,000-fold into fresh LB medium and grown to early exponential phase (2-4 hours). […] The plate was incubated in a BioTek Synergy H1 plate reader (BioTek, USA) at 37° C. for 20 h with double-orbital shaking. OD600 and luminescence (gain=135, integration time, 1 sec) measurements were obtained every 10 minutes. At least 3 biological replicates were assayed for each combination of strain and condition. Results were analyzed in MS Excel and plotted using GraphPad Prism.
# [3] = system: R/F pyocin expression (P07990-gfp reporter); assay type: cell-based, Pseudomonas aeruginosa; conditions: wild-type PA14; 50 μM peptide, 135 min
# Procedure: Strains of interest were grown in 3 mL of LB liquid broth overnight to obtain a saturated culture. They were then diluted 1,000-fold in fresh LB and grown to early exponential phase (about 4 hours). Cultures were concentrated by centrifuging 1 mL of exponential culture into a microcentrifuge tube at 5000 g for 1 min and resuspending in 100 μL. Cells were immobilized by spotting 0.5 μL of the concentrated mixture onto the pad and covering with cover glass. Imaging was performed on a Nikon Eclipse Ti inverted fluorescence microscope equipped with a Photometrics Prime 95B sCMOS digital camera, a Lumencor SOLA SE II 365 LED Light Engine, and an OKO temperature-controlled enclosure. Snapshot images of the slides were taken at 100× magnification in both phase and GFP channels. Automated timelapse imaging was performed at 37° C. For quantification of GFP-positive cells, images were analyzed using the MicrobeJ plugin for ImageJ, segmenting on phase-contrast and taking the mean GFP values of the corresponding fluorescence images. […]
# Strains of interest were grown in 3 mL of LB liquid broth with appropriate antibiotics overnight. […] Imaging was immediately performed using a Nikon Eclipse Ti inverted fluorescence microscope with a Photometrics Prime 95B sCMOS digital camera, a Lumencor SOLA SE II 365 LED Light Engine, and an OKO temperature-controlled enclosure. […]
# [4] = wild-type cells, 0.1-50 μM peptide with 0.03 μg/ml ciprofloxacin
# [5] = wild-type cells, peptide 25-100 μM
# [6] = wild-type cells, peptide concentrations in the 0.1-10 μM range (inhibitor: below 10 μM)
# [7] = wild-type cells, 50 μM peptide co-treatment with 0.03 μg/ml ciprofloxacin
molecule,measurement,setting,value
"CO[C@@]12[C@H](COC(N)=O)C3=C(C(=O)C(C)=C(N)C3=O)N1C[C@@H]1N[C@@H]12 [MMC, mitomycin C]",culture growth,"[1]; wild-type cells, 0.1 μg/ml MMC",inhibited cell growth to a slightly greater degree than 0.03 μg/ml ciprofloxacin
same,culture growth,"[1]; xerCY272F, 0.1 μg/ml MMC",initially outgrew both untreated control cultures
same,"peak pyocin expression, OD-normalized","[2]; wild-type cells, 0.1 μg/ml MMC",peaked at approximately tenfold that induced by ciprofloxacin
same,pyocin expression,"[2]; xerCY272F ΔrecA, 0.1 μg/ml MMC",abolished ciprofloxacin- and MMC-mediated stimulation of pyocin expression
same,pyocin expression,"[2]; xerCY272F, 0.1 μg/ml MMC",less expression in xerCY272F cultures than in the wild type
same,pyocin expression,"[2]; ΔprtN (wild-type background), 0.1 μg/ml MMC",deletion of prtN abolished the ability of MMC to stimulate pyocin expression
same,pyocin expression,"[2]; ΔrecA, 0.1 μg/ml MMC",deletion of recA fully abolished this very strong MMC-stimulated pyocin induction
same,peak pyocin expression relative to untreated cells,"[2]; ΔxerC cells, 0.1 μg/ml MMC","approximately twofold stronger, peak of expression than in untreated cells"
same,pyocin expression,"[2]; ΔxerC ΔprtN, 0.1 μg/ml MMC",fully abrogated pyocin expression
same,pyocin expression,"[2]; ΔxerC ΔrecA, 0.1 μg/ml MMC",independent of RecA
O=C(O)c1cn(C2CC2)c2cc(N3CCNCC3)c(F)cc2c1=O [ciprofloxacin],culture growth,"[1]; WT PA14 cells, 0.03 μg/ml ciprofloxacin",slower growth en route to a slightly lower final OD
same,culture growth,"[1]; xerCY272F, 0.03 μg/ml ciprofloxacin",initially outgrew both untreated control cultures
same,OD600 reached in growth curve,"[1]; Δ69700 cells, 0.03 μg/ml ciprofloxacin",0.8
same,culture growth (ciprofloxacin sensitivity),"[1]; ΔxerC strain, 0.03 μg/ml ciprofloxacin",sensitivity to ciprofloxacin similar to Δ69700
WKHYNY,culture growth,[1]; [4],impacted neither culture growth nor pyocin expression
same,culture growth,[1]; [5],no inhibition of growth
same,culture growth,[1]; [6],"correspondingly smaller effects, as did the control peptide"
same,culture growth,"[1]; ΔxerC cells, peptide 25-100 μM",inhibited by WRWYCR but not WKHYNY
same,pyocin expression,[2]; [4],impacted neither culture growth nor pyocin expression
same,pyocin expression,[2]; [5],Neither the WRWYCR inhibitor nor the WKHYNY control elicited pyocin expression beyond the level of untreated cells
same,pyocin expression,"[2]; ΔxerC cells, peptide 25-100 μM",no differences in pyocin expression were observed
WRWYCR,culture growth,"[1]; wild-type cells, 10 μM peptide",affected culture growth to a similar degree as 0.03 μg/ml ciprofloxacin
same,culture growth,[1]; [7],initial inhibition of growth
same,culture growth,[1]; [5],markedly impaired P. aeruginosa growth
same,culture growth,[1]; [6],correspondingly smaller effects
same,culture growth,"[1]; ΔxerC cells, peptide 25-100 μM",inhibited
same,pyocin expression,"[2]; wild-type cells, 10 μM peptide co-treatment with 0.03 μg/ml ciprofloxacin",earlier and higher peak of pyocin expression relative to ciprofloxacin alone
same,pyocin expression,[2]; [7],later peak of pyocin expression
same,pyocin expression,"[2]; wild-type cells, 0.1-10 μM peptide",no increase in pyocin expression over untreated cells
same,pyocin expression,[2]; [5],Neither the WRWYCR inhibitor nor the WKHYNY control elicited pyocin expression beyond the level of untreated cells
same,pyocin expression,"[2]; ΔxerC cells, peptide 25-100 μM",no differences in pyocin expression were observed
same,GFP fluorescence of pyocin-GFP reporter cells,[3],did not elicit GFP fluorescence
